Results taken from ChEMBL document CHEMBL5143724, “Small Molecules Promote Selective Denaturation and Degradation of Tubulin Heterodimers through a Low-Barrier Hydrogen Bond” (J Med Chem, 2022).
The source made the active and inactive calls.

Experiments:
[1] = biological target: T1, Tubulin alpha (Homo sapiens) (UniProt P0DPH7+P68366+Q71U36+P68363+Q9BQE3+Q6PEY2+A6NHL2+Q9NY65); assay: Induction of Alpha tubulin degradation in human HeLa cells incubated for 24 hrs by immunoblot analysis; assay type: cell-based; details: DDE = dose-dependent effect
Tubulin (Homo sapiens) = Tubulin (Homo sapiens) (UniProt P68371+Q9H4B7+P0DPH7+P68366+Q13509+Q71U36+P04350+Q3ZCM7+P07437+P68363+Q9BQE3+Q6PEY2+Q13885+Q9BVA1+Q9BUF5); assay: Induction of tubulin denaturation (unknown origin) pre incubated for 2 to 8 hrs with compound followed by GH addition measured after 30 mins by spectrophotometer based microplate reader method; assay type: protein-complex assay; details: time 2.5-8.5 hrs
Tubulin (Sus scrofa) = Tubulin (Sus scrofa) (UniProt P02554+P02550); assay: Induction of porcine tubulin aggregation assessed as formation of spherical sized tubulin aggregates at 20 uM incubated for 4 hrs by TEM analysis; assay type: protein assay
[2] = biological target: T2, Tubulin beta (Homo sapiens) (UniProt P68371+Q9H4B7+Q13509+P04350+Q3ZCM7+P07437+Q13885+Q9BVA1+Q9BUF5+A6NNZ2); assay: Induction of Beta tubulin degradation in human HeLa cells incubated for 24 hrs by immunoblot analysis; assay type: cell-based; details: DDE = dose-dependent effect
[3] = biological target: T2, Tubulin beta (Homo sapiens); assay: Induction of Beta tubulin degradation in human HCT-116 cells incubated for 24 hrs by immunoblot analysis; assay type: cell-based; details: dose 0.3-30 µM, DDE = dose-dependent effect
[4] = biological target: T1, Tubulin alpha (Homo sapiens); assay: Induction of Alpha tubulin degradation in human HCT-116 cells incubated for 24 hrs by immunoblot analysis; assay type: cell-based; details: dose 0.3-30 µM, DDE = dose-dependent effect
HeLa [5] = assay: Reduction in Alpha tubulin mRNA expression in human HeLa cells at 1 uM measured upto 16 hrs by qPCR analysis; assay type: functional, cell-based
HeLa [6] = assay: Reduction in Beta tubulin mRNA expression in human HeLa cells at 1 uM measured upto 16 hrs by qPCR analysis; assay type: functional, cell-based
[7] = biological target: T1, Tubulin alpha (Homo sapiens); assay: Induction of Alpha tubulin degradation in human HeLa cells at 1 uM incubated for 16 hrs in presence of maytansine by immunoblot analysis; assay type: cell-based
[8] = biological target: T2, Tubulin beta (Homo sapiens); assay: Induction of Beta tubulin degradation in human HeLa cells at 1 uM incubated for 16 hrs in presence of pironetin by immunoblot analysis; assay type: cell-based
[9] = biological target: T2, Tubulin beta (Homo sapiens); assay: Induction of Beta tubulin degradation in human HeLa cells at 0.001 to 100 uM incubated for 16 hrs by immunoblotting analysis; assay type: cell-based; details: dose 0.001-100 µM
HeLa [10] = assay: Antiproliferative activity against human HeLa cells assessed as cell viability at 0.001 to 100 uM incubated for 48 hrs by MTT assay; assay type: functional, cell-based; details: dose 0.001-100 µM

Measured: Activity

Sequence of Tubulin (Sus scrofa) (P02550 whole entry, looked up): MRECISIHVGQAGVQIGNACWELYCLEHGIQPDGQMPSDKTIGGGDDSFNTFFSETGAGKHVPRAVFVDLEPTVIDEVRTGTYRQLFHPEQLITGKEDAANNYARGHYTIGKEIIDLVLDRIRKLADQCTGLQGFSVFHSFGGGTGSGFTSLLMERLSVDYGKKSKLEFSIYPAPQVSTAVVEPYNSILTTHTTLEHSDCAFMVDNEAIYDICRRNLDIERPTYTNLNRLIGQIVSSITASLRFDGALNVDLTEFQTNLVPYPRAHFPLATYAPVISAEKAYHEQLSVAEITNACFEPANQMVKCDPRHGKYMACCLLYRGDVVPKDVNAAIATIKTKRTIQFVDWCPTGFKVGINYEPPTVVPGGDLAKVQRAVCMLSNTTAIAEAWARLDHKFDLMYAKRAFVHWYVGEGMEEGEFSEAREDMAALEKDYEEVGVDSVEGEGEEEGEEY
Sequence of Tubulin (Sus scrofa) (P02554 whole entry, looked up): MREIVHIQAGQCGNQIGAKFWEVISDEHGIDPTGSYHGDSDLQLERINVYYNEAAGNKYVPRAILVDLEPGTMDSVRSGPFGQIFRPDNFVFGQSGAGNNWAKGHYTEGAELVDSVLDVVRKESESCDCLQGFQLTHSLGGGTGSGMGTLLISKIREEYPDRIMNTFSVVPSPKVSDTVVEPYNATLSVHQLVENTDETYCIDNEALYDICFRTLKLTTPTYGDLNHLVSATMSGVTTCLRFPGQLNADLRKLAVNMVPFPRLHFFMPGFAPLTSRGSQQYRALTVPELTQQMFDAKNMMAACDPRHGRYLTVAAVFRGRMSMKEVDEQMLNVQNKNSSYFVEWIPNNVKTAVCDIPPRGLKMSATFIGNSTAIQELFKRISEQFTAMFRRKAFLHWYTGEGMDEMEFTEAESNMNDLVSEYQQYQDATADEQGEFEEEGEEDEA

COc1cccc(-c2cc(NCc3ccc4c(c3)OCO4)nc(N)n2)c1
active: [1] Dde | Tubulin (Homo sapiens) | Tubulin (Sus scrofa) | [2] Dde | [3] Dde | [4] Dde | HeLa [5] | HeLa [6] | [7] | [8]

c1ccc(Oc2cccc(CCc3cc4c(cn3)[nH]c3ccccc34)c2)cc1
active: [9] | HeLa [10]

CCCCNc1cc2c(cn1)[nH]c1ccccc12
active: [9] | HeLa [10]

c1ccc(Oc2cccc(CNc3ccccn3)c2)cc1
active: [9] | HeLa [10]
